{"source": "PubChem BioAssay (NCI)", "assay_in_all_cases": "NCI tumour cell line growth inhibition, 48 h", "key": {"[1]": {"test_system": "SK-MEL-5 melanoma"}, "[2]": {"test_system": "A498 renal"}, "[3]": {"test_system": "CCRF-CEM leukemia"}, "[4]": {"test_system": "NCI-H23 lung"}, "[5]": {"test_system": "OVCAR-5 ovarian"}, "[6]": {"test_system": "KM12 colon"}, "[7]": {"test_system": "786-0 renal"}, "[8]": {"test_system": "NCI-H460 lung"}, "[9]": {"test_system": "IGROV1 ovarian"}, "[10]": {"test_system": "HS 578T breast"}, "[11]": {"test_system": "SK-MEL-2 melanoma"}, "[12]": {"test_system": "OVCAR-8 ovarian"}, "[13]": {"test_system": "HCT-116 colon"}, "[14]": {"test_system": "SN12C renal"}, "[15]": {"test_system": "COLO 205 colon"}, "[16]": {"test_system": "SR leukemia"}, "[17]": {"test_system": "SW-620 colon"}, "[18]": {"test_system": "SF-539 CNS"}, "[19]": {"test_system": "OVCAR-3 ovarian"}, "[20]": {"test_system": "K-562 leukemia"}, "[21]": {"test_system": "MOLT-4 leukemia"}, "[22]": {"test_system": "DU-145 prostate"}, "[23]": {"test_system": "HOP-92 NSCLC"}, "[24]": {"test_system": "RPMI-8226 leukemia"}, "[25]": {"test_system": "U251 CNS"}, "[26]": {"test_system": "TK-10 renal"}, "[27]": {"test_system": "PC-3 prostate"}, "[28]": {"test_system": "SK-OV-3 ovarian"}, "[29]": {"test_system": "MDA-MB-231 breast"}, "[30]": {"test_system": "HCC-2998 colon"}, "[31]": {"test_system": "SF-295 CNS"}, "[32]": {"test_system": "NCI-H522 lung"}, "[33]": {"test_system": "LOX IMVI melanoma"}, "[34]": {"test_system": "SF-268 CNS"}, "[35]": {"test_system": "HCT-15 colon"}, "[36]": {"test_system": "SNB-19 CNS"}, "[37]": {"test_system": "UACC-62 melanoma"}, "[38]": {"test_system": "NCI-H226 lung"}, "[39]": {"test_system": "HL-60(TB) leukemia"}, "[40]": {"test_system": "EKVX NSCLC"}, "[41]": {"test_system": "UO-31 renal"}, "[42]": {"test_system": "A549 NSCLC"}, "[43]": {"test_system": "HOP-62 NSCLC"}, "[44]": {"test_system": "OVCAR-4 ovarian"}, "[45]": {"test_system": "NCI/ADR-RES ovarian"}, "[46]": {"test_system": "MCF7 breast"}, "[47]": {"test_system": "UACC-257 melanoma"}, "[48]": {"test_system": "BT-549 breast"}, "[49]": {"test_system": "HT29 colon"}}, "note": "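The compound was tested at five concentrations on cells cultured in 96-well plates, with a 48-hour exposure period. GI50 is the concentration that inhibits growth by half. TGI is the concentration that stops growth completely.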"}
{"smiles": "CCOC(=O)[C@@H](C)C[C@H](Cc1ccccc1)NC(=O)c1csc([C@@H](C[C@H](C(C)C)N(C)C(=O)[C@H](CCC(C)C)NC(=O)[C@H]2CCCCN2C)OC(C)=O)n1", "values": [{"measurement": "GI50", "setting": "[1]", "result": "< 3.33", "unit": "nM"}, {"measurement": "TGI", "setting": "[1]", "result": 92.7, "unit": "nM"}, {"measurement": "GI50", "setting": "[2]", "result": 4.19, "unit": "nM"}, {"measurement": "TGI", "setting": "[2]", "result": 22.6, "unit": "nM"}, {"measurement": "GI50", "setting": "[3]", "result": 6, "unit": "nM"}, {"measurement": "TGI", "setting": "[3]", "result": 4350, "unit": "nM"}, {"measurement": "GI50", "setting": "[4]", "result": 12.9, "unit": "nM"}, {"measurement": "TGI", "setting": "[4]", "result": "> 33300", "unit": "nM"}, {"measurement": "GI50", "setting": "[5]", "result": 11.5, "unit": "nM"}, {"measurement": "TGI", "setting": "[5]", "result": 10300, "unit": "nM"}, {"measurement": "GI50", "setting": "[6]", "result": "< 3.33", "unit": "nM"}, {"measurement": "TGI", "setting": "[6]", "result": 4810, "unit": "nM"}, {"measurement": "GI50", "setting": "[7]", "result": 13.5, "unit": "nM"}, {"measurement": "TGI", "setting": "[7]", "result": 5530, "unit": "nM"}, {"measurement": "GI50", "setting": "[8]", "result": 4.07, "unit": "nM"}, {"measurement": "TGI", "setting": "[8]", "result": 3780, "unit": "nM"}, {"measurement": "GI50", "setting": "[9]", "result": 3.35, "unit": "nM"}, {"measurement": "TGI", "setting": "[9]", "result": 29800, "unit": "nM"}, {"measurement": "GI50", "setting": "[10]", "result": 9.22, "unit": "nM"}, {"measurement": "TGI", "setting": "[10]", "result": 3540, "unit": "nM"}, {"measurement": "GI50", "setting": "[11]", "result": "< 3.33", "unit": "nM"}, {"measurement": "TGI", "setting": "[11]", "result": 6650, "unit": "nM"}, {"measurement": "GI50", "setting": "[12]", "result": 12.5, "unit": "nM"}, {"measurement": "TGI", "setting": "[12]", "result": 10100, "unit": "nM"}, {"measurement": "GI50", "setting": "[13]", "result": 4.24, "unit": "nM"}, {"measurement": "TGI", "setting": "[13]", "result": 8170, "unit": "nM"}, {"measurement": "GI50", "setting": "[14]", "result": 15.9, "unit": "nM"}, {"measurement": "TGI", "setting": "[14]", "result": 4590, "unit": "nM"}, {"measurement": "GI50", "setting": "[15]", "result": 4.39, "unit": "nM"}, {"measurement": "TGI", "setting": "[15]", "result": 35.2, "unit": "nM"}, {"measurement": "GI50", "setting": "[16]", "result": "< 3.33", "unit": "nM"}, {"measurement": "TGI", "setting": "[16]", "result": 3770, "unit": "nM"}, {"measurement": "GI50", "setting": "[17]", "result": "< 3.33", "unit": "nM"}, {"measurement": "TGI", "setting": "[17]", "result": 7140, "unit": "nM"}, {"measurement": "GI50", "setting": "[18]", "result": 8.38, "unit": "nM"}, {"measurement": "TGI", "setting": "[18]", "result": 28.9, "unit": "nM"}, {"measurement": "GI50", "setting": "[19]", "result": "< 3.33", "unit": "nM"}, {"measurement": "TGI", "setting": "[19]", "result": 33.5, "unit": "nM"}, {"measurement": "GI50", "setting": "[20]", "result": "< 3.33", "unit": "nM"}, {"measurement": "TGI", "setting": "[20]", "result": 4450, "unit": "nM"}, {"measurement": "GI50", "setting": "[21]", "result": 16.7, "unit": "nM"}, {"measurement": "TGI", "setting": "[21]", "result": 5100, "unit": "nM"}, {"measurement": "GI50", "setting": "[22]", "result": 8.92, "unit": "nM"}, {"measurement": "TGI", "setting": "[22]", "result": 26200, "unit": "nM"}, {"measurement": "GI50", "setting": "[23]", "result": 658, "unit": "nM"}, {"measurement": "TGI", "setting": "[23]", "result": 23300, "unit": "nM"}, {"measurement": "GI50", "setting": "[24]", "result": "< 3.33", "unit": "nM"}, {"measurement": "TGI", "setting": "[24]", "result": 3830, "unit": "nM"}, {"measurement": "GI50", "setting": "[25]", "result": 7.58, "unit": "nM"}, {"measurement": "TGI", "setting": "[25]", "result": 5920, "unit": "nM"}, {"measurement": "GI50", "setting": "[26]", "result": 4120, "unit": "nM"}, {"measurement": "TGI", "setting": "[26]", "result": "> 33300", "unit": "nM"}, {"measurement": "GI50", "setting": "[27]", "result": "< 3.33", "unit": "nM"}, {"measurement": "TGI", "setting": "[27]", "result": 7150, "unit": "nM"}, {"measurement": "GI50", "setting": "[28]", "result": 9.29, "unit": "nM"}, {"measurement": "TGI", "setting": "[28]", "result": 9260, "unit": "nM"}, {"measurement": "GI50", "setting": "[29]", "result": 8.21, "unit": "nM"}, {"measurement": "TGI", "setting": "[29]", "result": 398, "unit": "nM"}, {"measurement": "GI50", "setting": "[30]", "result": "< 3.33", "unit": "nM"}, {"measurement": "TGI", "setting": "[30]", "result": 4280, "unit": "nM"}, {"measurement": "GI50", "setting": "[31]", "result": 5.75, "unit": "nM"}, {"measurement": "TGI", "setting": "[31]", "result": 3680, "unit": "nM"}, {"measurement": "GI50", "setting": "[32]", "result": "< 3.33", "unit": "nM"}, {"measurement": "TGI", "setting": "[32]", "result": 7.08, "unit": "nM"}, {"measurement": "GI50", "setting": "[33]", "result": 13.3, "unit": "nM"}, {"measurement": "TGI", "setting": "[33]", "result": 4850, "unit": "nM"}, {"measurement": "GI50", "setting": "[34]", "result": 20.5, "unit": "nM"}, {"measurement": "TGI", "setting": "[34]", "result": 5870, "unit": "nM"}, {"measurement": "GI50", "setting": "[35]", "result": 13.8, "unit": "nM"}, {"measurement": "TGI", "setting": "[35]", "result": 4190, "unit": "nM"}, {"measurement": "GI50", "setting": "[36]", "result": "< 3.33", "unit": "nM"}, {"measurement": "TGI", "setting": "[36]", "result": 10700, "unit": "nM"}, {"measurement": "GI50", "setting": "[37]", "result": "< 3.33", "unit": "nM"}, {"measurement": "TGI", "setting": "[37]", "result": 6920, "unit": "nM"}, {"measurement": "GI50", "setting": "[38]", "result": 49.5, "unit": "nM"}, {"measurement": "TGI", "setting": "[38]", "result": 11600, "unit": "nM"}, {"measurement": "GI50", "setting": "[39]", "result": "< 3.33", "unit": "nM"}, {"measurement": "TGI", "setting": "[39]", "result": 10.4, "unit": "nM"}, {"measurement": "GI50", "setting": "[40]", "result": 15.3, "unit": "nM"}, {"measurement": "TGI", "setting": "[40]", "result": "> 33300", "unit": "nM"}, {"measurement": "GI50", "setting": "[41]", "result": 22.7, "unit": "nM"}, {"measurement": "TGI", "setting": "[41]", "result": 5140, "unit": "nM"}, {"measurement": "GI50", "setting": "[42]", "result": 14.5, "unit": "nM"}, {"measurement": "TGI", "setting": "[42]", "result": "> 33300", "unit": "nM"}, {"measurement": "GI50", "setting": "[43]", "result": 9.32, "unit": "nM"}, {"measurement": "TGI", "setting": "[43]", "result": 5680, "unit": "nM"}, {"measurement": "GI50", "setting": "[44]", "result": 497, "unit": "nM"}, {"measurement": "TGI", "setting": "[44]", "result": "> 33300", "unit": "nM"}, {"measurement": "GI50", "setting": "[45]", "result": 143, "unit": "nM"}, {"measurement": "TGI", "setting": "[45]", "result": 24000, "unit": "nM"}, {"measurement": "GI50", "setting": "[46]", "result": "< 3.33", "unit": "nM"}, {"measurement": "TGI", "setting": "[46]", "result": 6300, "unit": "nM"}, {"measurement": "GI50", "setting": "[47]", "result": 4240, "unit": "nM"}, {"measurement": "TGI", "setting": "[47]", "result": 10300, "unit": "nM"}, {"measurement": "GI50", "setting": "[48]", "result": 11.9, "unit": "nM"}, {"measurement": "TGI", "setting": "[48]", "result": 195, "unit": "nM"}, {"measurement": "GI50", "setting": "[49]", "result": "< 3.33", "unit": "nM"}, {"measurement": "TGI", "setting": "[49]", "result": 81.1, "unit": "nM"}]}
